Measured values from patent publication US8729082B2, “Substituted imidazoquinoxalines” (Bayer Intellectual Property GmbH, priority 2009, dated 2014).

target: T1, human kinase Mps-1 (Homo sapiens, UniProt P33981); assay: Mps-1 kinase assay (HTRF); format: biochemical; conditions: lowATP; mean; read-out: Mps1 lowATP mean IC50
T1 construct: N-terminally GST-tagged human full length recombinant Mps-1 kinase; purchased Invitrogen, Karslruhe, Germany PV4071
T1 sequence (P33981 1-857): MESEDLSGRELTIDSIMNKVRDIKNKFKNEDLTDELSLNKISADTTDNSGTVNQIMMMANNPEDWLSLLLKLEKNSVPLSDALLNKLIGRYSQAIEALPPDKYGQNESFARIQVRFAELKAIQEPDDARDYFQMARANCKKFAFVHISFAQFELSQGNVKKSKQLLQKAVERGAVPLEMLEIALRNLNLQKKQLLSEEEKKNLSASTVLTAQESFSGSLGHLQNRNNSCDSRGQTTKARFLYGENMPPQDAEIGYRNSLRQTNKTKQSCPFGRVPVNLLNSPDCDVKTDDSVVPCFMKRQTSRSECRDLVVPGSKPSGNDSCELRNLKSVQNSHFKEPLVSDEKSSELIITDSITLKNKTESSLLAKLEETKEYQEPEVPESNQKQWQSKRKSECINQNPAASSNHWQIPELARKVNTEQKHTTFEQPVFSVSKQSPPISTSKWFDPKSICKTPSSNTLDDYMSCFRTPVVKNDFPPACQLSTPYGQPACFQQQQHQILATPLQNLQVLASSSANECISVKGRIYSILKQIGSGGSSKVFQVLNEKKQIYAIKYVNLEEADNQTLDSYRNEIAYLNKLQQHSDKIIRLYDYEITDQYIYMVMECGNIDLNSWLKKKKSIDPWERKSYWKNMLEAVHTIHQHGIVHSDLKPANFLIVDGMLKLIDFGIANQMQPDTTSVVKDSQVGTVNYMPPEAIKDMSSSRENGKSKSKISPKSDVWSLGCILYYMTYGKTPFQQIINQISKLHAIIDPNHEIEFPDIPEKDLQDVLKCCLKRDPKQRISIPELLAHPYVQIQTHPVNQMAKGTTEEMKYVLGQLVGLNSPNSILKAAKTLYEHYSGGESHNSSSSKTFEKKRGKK
In short: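 HTRF readout: EDTA-stopped reactions incubated 1 h with europium anti-phospho(Ser/Thr) antibody and streptavidin-XLent, emission ratio 665/620 nm after 350 nm excitation. Kinase step: compound pre-bound 15 min to ~1 nM GST-Mps-1, then 60 min at 22 °C with ATP and biotin-peptide substrate; inhibition scaled between no-inhibitor (0%) and no-enzyme (100%) controls.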

IC50 | SMILES
283 nM | CNC(=O)Nc1ccc(-c2cnc3c(NCc4cccnc4)nc4cc(C)c(C)cc4n23)cc1 [Example 2-171, 1-(4-{7,8-dimethyl-4-[(pyridin-3-ylmethyl)amino]imidazo[1,2-a]quinoxalin-1-yl}phenyl)-3-methylurea]
260 nM | CNC(=O)Nc1ccc(-c2cnc3c(NCc4ccncc4)nc4cc(C)c(C)cc4n23)cc1 [Example 2-172, 1-(4-{7,8-dimethyl-4-[(pyridin-4-ylmethyl)amino]imidazo[1,2-a]quinoxalin-1-yl}phenyl)-3-methylurea]
209 nM | CNC(=O)Nc1ccc(-c2cnc3c(NCC(C)C)nc4cc(C)c(C)cc4n23)cc1 [Example 2-173, 1-(4-{7,8-dimethyl-4-[(2-methylpropyl)amino]imidazo[1,2-a]quinoxalin-1-yl}phenyl)-3-methylurea]
782 nM | CNC(=O)Nc1ccc(-c2cnc3c(NCCC(N)=O)nc4cc(C)c(C)cc4n23)cc1 [Example 2-174, N^3-(7,8-dimethyl-1-{4-[(methylcarbamoyl)amino]phenyl}imidazo[1,2-a]quinoxalin-4-yl)-beta-alaninamide]
199 nM | CNC(=O)Nc1ccc(-c2cnc3c(NCc4ccnn4C)nc4cc(C)c(C)cc4n23)cc1 [Example 2-175, 1-[4-(7,8-dimethyl-4-{[(1-methyl-1H-pyrazol-5-yl)methyl]amino}imidazo[1,2-a]quinoxalin-1-yl)phenyl]-3-methylurea]
616 nM | CNC(=O)Nc1ccc(-c2cnc3c(NCc4cnn(C)c4)nc4cc(C)c(C)cc4n23)cc1 [Example 2-176, 1-[4-(7,8-dimethyl-4-{[(1-methyl-1H-pyrazol-4-yl)methyl]amino}imidazo[1,2-a]quinoxalin-1-yl)phenyl]-3-methylurea]
2240 nM | CNC(=O)Nc1ccc(-c2cnc3c(NCCS(N)(=O)=O)nc4cc(C)c(C)cc4n23)cc1 [Example 2-177, 2-[(7,8-dimethyl-1-{4-[(methylcarbamoyl)amino]phenyl}imidazo[1,2-a]quinoxalin-4-yl)amino]ethanesulfonamide]
24.8 nM | CCCNc1nc2cc(C)c(C)cc2n2c(-c3ccc(C(=O)NC4CC4)c(Cl)c3)cnc12 [Example 2-178, 2-chloro-N-cyclopropyl-4-[7,8-dimethyl-4-(propylamino)imidazo[1,2-a]quinoxalin-1-yl]benzamide]
71.8 nM | Cc1cc2nc(NCCC(C)C)c3ncc(-c4ccc(C(=O)NC5CC5)c(Cl)c4)n3c2cc1C [Example 2-181, 2-chloro-N-cyclopropyl-4-{7,8-dimethyl-4-[(3-methylbutyl)amino]imidazo[1,2-a]quinoxalin-1-yl}benzamide]
97.3 nM | CCNc1nc2cc(C)c(C)cc2n2c(-c3ccc(C(=O)NC4CC4)c(Cl)c3)cnc12 [Example 2-185, 2-chloro-N-cyclopropyl-4-[4-(ethylamino)-7,8-dimethylimidazo[1,2-a]quinoxalin-1-yl]benzamide]
82.7 nM | Cc1cc2nc(NCCCn3ccnc3)c3ncc(-c4ccc(C(=O)NC5CC5)c(Cl)c4)n3c2cc1C [Example 2-189, 2-chloro-N-cyclopropyl-4-(4-{[3-(1H-imidazol-1-yl)propyl]amino}-7,8-dimethylimidazo[1,2-a]quinoxalin-1-yl)benzamide]
251 nM | Cc1cc2nc(NCc3ccccn3)c3ncc(-c4ccc(C(=O)NC5CC5)c(Cl)c4)n3c2cc1C [Example 2-191, 2-chloro-N-cyclopropyl-4-{7,8-dimethyl-4-[(pyridin-2-ylmethyl)amino]imidazo[1,2-a]quinoxalin-1-yl}benzamide]
35.5 nM | Cc1cc2nc(NCc3cccnc3)c3ncc(-c4ccc(C(=O)NC5CC5)c(Cl)c4)n3c2cc1C [Example 2-192, 2-chloro-N-cyclopropyl-4-{7,8-dimethyl-4-[(pyridin-3-ylmethyl)amino]imidazo[1,2-a]quinoxalin-1-yl}benzamide]
51.2 nM | Cc1cc2nc(NCc3ccncc3)c3ncc(-c4ccc(C(=O)NC5CC5)c(Cl)c4)n3c2cc1C [Example 2-193, 2-chloro-N-cyclopropyl-4-{7,8-dimethyl-4-[(pyridin-4-ylmethyl)amino]imidazo[1,2-a]quinoxalin-1-yl}benzamide]
22.7 nM | Cc1cc2nc(NCC(C)C)c3ncc(-c4ccc(C(=O)NC5CC5)c(Cl)c4)n3c2cc1C [Example 2-194, 2-chloro-N-cyclopropyl-4-{7,8-dimethyl-4-[(2-methylpropyl)amino]imidazo[1,2-a]quinoxalin-1-yl}benzamide]

Continued, compound first:

SMILES | IC50
Cc1cc2nc(NCCO)c3ncc(-c4ccc(C(=O)NC5CC5)c(Cl)c4)n3c2cc1C [Example 2-179, 2-chloro-N-cyclopropyl-4-{4-[(2-hydroxyethyl)amino]-7,8-dimethylimidazo[1,2-a]quinoxalin-1-yl}benzamide] | 130 nM
Cc1cc2nc(NCCCN3CCOCC3)c3ncc(-c4ccc(C(=O)NC5CC5)c(Cl)c4)n3c2cc1C [Example 2-180, 2-chloro-N-cyclopropyl-4-(7,8-dimethyl-4-{[3-(morpholin-4-yl)propyl]amino}imidazo[1,2-a]quinoxalin-1-yl)benzamide] | 473 nM
Cc1cc2nc(NCCCN3CCCC3=O)c3ncc(-c4ccc(C(=O)NC5CC5)c(Cl)c4)n3c2cc1C [Example 2-182, 2-chloro-N-cyclopropyl-4-(7,8-dimethyl-4-{[3-(2-oxopyrrolidin-1-yl)propyl]amino}imidazo[1,2-a]quinoxalin-1-yl)benzamide] | 444 nM
COCCNc1nc2cc(C)c(C)cc2n2c(-c3ccc(C(=O)NC4CC4)c(Cl)c3)cnc12 [Example 2-183, 2-chloro-N-cyclopropyl-4-{4-[(2-methoxyethyl)amino]-7,8-dimethylimidazo[1,2-a]quinoxalin-1-yl}benzamide] | 113 nM
Cc1cc2nc(NCCCCO)c3ncc(-c4ccc(C(=O)NC5CC5)c(Cl)c4)n3c2cc1C [Example 2-184, 2-chloro-N-cyclopropyl-4-{4-[(4-hydroxybutyl)amino]-7,8-dimethylimidazo[1,2-a]quinoxalin-1-yl}benzamide] | 33 nM
Cc1cc2nc(NCCCO)c3ncc(-c4ccc(C(=O)NC5CC5)c(Cl)c4)n3c2cc1C [Example 2-186, 2-chloro-N-cyclopropyl-4-{4-[(3-hydroxypropyl)amino]-7,8-dimethylimidazo[1,2-a]quinoxalin-1-yl}benzamide] | 117 nM
CCCCNc1nc2cc(C)c(C)cc2n2c(-c3ccc(C(=O)NC4CC4)c(Cl)c3)cnc12 [Example 2-187, 4-[4-(butylamino)-7,8-dimethylimidazo[1,2-a]quinoxalin-1-yl]-2-chloro-N-cyclopropylbenzamide] | 26.7 nM
CC(=O)NCCNc1nc2cc(C)c(C)cc2n2c(-c3ccc(C(=O)NC4CC4)c(Cl)c3)cnc12 [Example 2-188, 4-(4-{[2-(acetylamino)ethyl]amino}-7,8-dimethylimidazo[1,2-a]quinoxalin-1-yl)-2-chloro-N-cyclopropylbenzamide] | 541 nM
Cc1cc2nc(NCC3CC3)c3ncc(-c4ccc(C(=O)NC5CC5)c(Cl)c4)n3c2cc1C [Example 2-190, 2-chloro-N-cyclopropyl-4-{4-[(cyclopropylmethyl)amino]-7,8-dimethylimidazo[1,2-a]quinoxalin-1-yl}benzamide] | 43.5 nM
Cc1cc2nc(NCCC(N)=O)c3ncc(-c4ccc(C(=O)NC5CC5)c(Cl)c4)n3c2cc1C [Example 2-195, 4-{4-[(3-amino-3-oxopropyl)amino]-7,8-dimethylimidazo[1,2-a]quinoxalin-1-yl}-2-chloro-N-cyclopropylbenzamide] | 218 nM
